These compounds were tested on PGD2 induced eosinophil shape change (assay: Human whole blood eosinophil shape change assay). Conditions: Homo sapiens, Eosinophil, 10 nm PGD2-induced eosinophil shape change, human whole blood; read-out: Whole Blood IC50.
Type: cell-based
Procedure: Human Whole Blood Eosinophil Shape Change Assay
Compounds 1 to 3 were assayed for their effect on PGD2 induced eosinophil shape change and were compared with Comparator Compounds A to G.
Shape Change Assay in Whole Blood
Compounds (1 μl, 200× final concentration) were added directly to 200 μl whole blood, mixed well and incubated for 15 min, 37° C., 5% CO2. After this time, cell shape was fixed by addition of 300 μl Cytofix™ buffer (BD Biosciences), 15 min on ice. 10 ml RBC lysis buffer was added to the fixed cells, incubated 5 min, at room temperature and centrifuged, 300×g for 5 min. Supernatant (containing lysed red cells) was removed and the lysis step was repeated. Leukocytes were resuspended in 250 μl RPMI/10% FCS and shape change analysed by FACS. Eosinophils were gated out based on their autofluorescence and 2000 eosinophil events were counted per sample. Data were analysed in triplicate.

IC50 [nM]	SMILES
273	Cc1c(Cc2ccc(S(=O)(=O)c3ccccc3)cc2)c2cc(F)ccc2n1CC(=O)O [Compound C, 2-{5-Fluoro-2-methyl-3-[4-(phenylsulfonyl)benzyl]-1H-indol-1-yl}acetic acid]
494	Cc1c(Cc2ccc(S(=O)(=O)c3ccc(Cl)cc3)cc2)c2cc(F)ccc2n1CC(=O)O [Compound D, 2-{3-[4-(4-chlorophenylsulfonyl)benzyl]-5-fluoro-2-methyl-1H-indol-1-yl}acetic acid]
71	Cc1c(Cc2ccc(S(=O)(=O)c3ccc(F)cc3)cc2)c2cc(F)ccc2n1CC(=O)O [Compound E, 2-{5-Fluoro-3-[4-(4-fluorophenylsulfonyl)benzyl]-2-methyl-1H-indol-1-yl}acetic acid]
1500	Cc1c(Cc2cccc(S(=O)(=O)c3ccccc3)c2)c2cc(F)ccc2n1CC(=O)O [Compound F, 2-{5-Fluoro-2-methyl-3-[3-(phenylsulfonyl)benzyl]-1H-indol-1-yl}acetic acid]
4660	Cc1c(Cc2cccc(S(=O)(=O)c3ccc(Cl)cc3)c2)c2cc(F)ccc2n1CC(=O)O [Compound G, 2-{3-[3-(4-chlorophenylsulfonyl)benzyl]-5-fluoro-2-methyl-1H-indol-1-yl}acetic acid]

— patent publication US7999119B2, “Compounds having CRTH2 antagonist activity” (Oxagen Limited, priority 2006, dated 2011)
